Here are results for six compounds from PubChem BioAssay AID254 (DTP/NCI, 2004).

SMILES strings stand for the structures. “And” between values parts separate entries of the source, which are not always exact repeats. Equal values may be shown once. Toxic doses and inconclusive results are not listed.

The assay relates to L1210 leukemia iv in BDF1 mice, survival T/C. The assay is described as follows: NCI In Vivo Anticancer Drug Screen. Data for tumor model L1210 Leukemia (intravenous) in B6D2F1 (BDF1) mice. Conditions: higher = longer survival. As to the method: The antitumor activity of compounds was measured in mice bearing transplantable tumors. Survival or tumor size were measured and the results are expressed as the measurement made in the treated group (T) divided by the measurement made in the vehicle treated control group (C). The tumor model used in this assay is L1210 Leukemia (intravenous) in B6D2F1 (BDF1) mice

For `NC(=S)N/N=C/c1ccccn1`, the T/C was 105 % of control (endpoint: mean survival time, dose: 5.0 mg/kg/injection, schedule: Q01HX008 (ip), vehicle: other); 166 % of control (endpoint: mean survival time, dose: 5.0 mg/kg/injection, schedule: Q03HX008 (ip), vehicle: other); 176 % of control (endpoint: mean survival time, dose: 8.0 mg/kg/injection, schedule: Q01DX008 (ip), vehicle: other); 208 % of control (endpoint: mean survival time, dose: 8.0 mg/kg/injection, schedule: Q03HX008 (ip), vehicle: other); 176 % of control (endpoint: mean survival time, dose: 8.0 mg/kg/injection, schedule: Q06HX008 (ip), vehicle: other); 200 % of control (endpoint: mean survival time, dose: 8.0 mg/kg/injection, schedule: Q12HX008 (ip), vehicle: other). Besides, the T/C (endpoint: mean survival time, dose: 22.0 mg/kg/injection, schedule: Q01DX001 (ip), vehicle: other) is 111 % of control and the T/C (endpoint: mean survival time, dose: 33.0 mg/kg/injection, schedule: Q01DX001 (ip), vehicle: other) is 110 % of control.
On to `CN(C)/N=N/c1nc[nH]c1C(N)=O`, for which the T/C (endpoint: mean survival time, dose: 42.0 mg/kg/injection, schedule: Q01DX001 (ip), vehicle: carboxymethylcellulose (CMC)) is 85 % of control and 86 % of control; the T/C (endpoint: mean survival time, dose: 83.0 mg/kg/injection, schedule: Q01DX001 (ip), vehicle: carboxymethylcellulose (CMC)) is 97 % of control and 98 % of control; the T/C (endpoint: mean survival time, dose: 170.0 mg/kg/injection, schedule: Q01DX001 (ip), vehicle: carboxymethylcellulose (CMC)) is 114 % of control and 115 % of control; the T/C (endpoint: mean survival time, dose: 180.0 mg/kg/injection, schedule: Q01DX001 (ip), vehicle: carboxymethylcellulose (CMC)) was 113 % of control; the T/C (endpoint: mean survival time, dose: 600.0 mg/kg/injection, schedule: Q01DX001 (ip), vehicle: carboxymethylcellulose (CMC)) was 161 % of control; the T/C (endpoint: mean survival time, dose: 900.0 mg/kg/injection, schedule: Q01DX001 (ip), vehicle: carboxymethylcellulose (CMC)) is 193 % of control. The T/C (endpoint: mean survival time, dose: 1012.0 mg/kg/injection, schedule: Q01DX001 (ip), vehicle: carboxymethylcellulose (CMC)) is 183 % of control and 184 % of control; the T/C (endpoint: mean survival time, dose: 1350.0 mg/kg/injection, schedule: Q01DX001 (ip), vehicle: carboxymethylcellulose (CMC)) is 113 % of control.
Take `CCCCCCCCCCCCCCCC(=O)OCC1OC(n2ccc(N)nc2=O)C(O)C1O` (stereo not given): the T/C (endpoint: mean survival time, dose: 5.0 mg/kg/injection, schedule: Q01DX005 (ip), vehicle: other) was 118 % of control and 122 % of control; the T/C (endpoint: mean survival time, dose: 10.0 mg/kg/injection, schedule: Q01DX005 (ip), vehicle: other) was 172 % of control; the T/C (endpoint: mean survival time, dose: 15.0 mg/kg/injection, schedule: Q01DX005 (ip), vehicle: other) is 177 % of control; the T/C (endpoint: mean survival time, dose: 18.0 mg/kg/injection, schedule: Q01DX004 (ip), vehicle: other) was 165 % of control and 183 % of control; the T/C (endpoint: mean survival time, dose: 20.0 mg/kg/injection, schedule: Q01DX005 (ip), vehicle: other) is 175 % of control and 176 % of control and 200 % of control; the T/C (endpoint: mean survival time, dose: 25.0 mg/kg/injection, schedule: Q01DX005 (ip), vehicle: other) was 171 % of control and 211 % of control and 220 % of control. Besides, the T/C by setting is: (endpoint: mean survival time, dose: 27.0 mg/kg/injection, schedule: Q01DX004 (ip), vehicle: other) 182 % of control and 234 % of control; (endpoint: mean survival time, dose: 27.0 mg/kg/injection, schedule: Q02DX004 (ip), vehicle: other) 178 % of control and 193 % of control; (endpoint: mean survival time, dose: 30.0 mg/kg/injection, schedule: Q01DX005 (ip), vehicle: other) 217 % of control and 249 % of control and 252 % of control; (endpoint: mean survival time, dose: 35.0 mg/kg/injection, schedule: Q01DX005 (ip), vehicle: other) 201 % of control and 267 % of control and 298 % of control; (endpoint: mean survival time, dose: 40.0 mg/kg/injection, schedule: Q01DX004 (ip), vehicle: other) 263 % of control and 291 % of control; (endpoint: mean survival time, dose: 40.0 mg/kg/injection, schedule: Q02DX004 (ip), vehicle: other) 213 % of control and 226 % of control. Further, the T/C is, setting by setting: (endpoint: mean survival time, dose: 40.0 mg/kg/injection, schedule: Q03DX004 (ip), vehicle: other) 216 % of control and 246 % of control; (endpoint: mean survival time, dose: 60.0 mg/kg/injection, schedule: Q01DX004 (ip), vehicle: other) 249 % of control and 323 % of control; (endpoint: mean survival time, dose: 60.0 mg/kg/injection, schedule: Q02DX004 (ip), vehicle: other) 248 % of control and 280 % of control; (endpoint: mean survival time, dose: 60.0 mg/kg/injection, schedule: Q03DX004 (ip), vehicle: other) 242 % of control and 305 % of control; (endpoint: mean survival time, dose: 60.0 mg/kg/injection, schedule: Q04DX004 (ip), vehicle: other) 202 % of control and 260 % of control; (endpoint: mean survival time, dose: 90.0 mg/kg/injection, schedule: Q02DX004 (ip), vehicle: other) 277 % of control and 309 % of control. Besides, the T/C (endpoint: mean survival time, dose: 90.0 mg/kg/injection, schedule: Q03DX004 (ip), vehicle: other) was 291 % of control and 328 % of control; the T/C (endpoint: mean survival time, dose: 90.0 mg/kg/injection, schedule: Q04DX004 (ip), vehicle: other) is 340 % of control and 303 % of control; the T/C (endpoint: mean survival time, dose: 100.0 mg/kg/injection, schedule: Q01DX001 (ip), vehicle: saline with Tween-80) is 200 % of control; the T/C (endpoint: mean survival time, dose: 135.0 mg/kg/injection, schedule: Q03DX004 (ip), vehicle: other) is 175 % of control and 249 % of control; the T/C (endpoint: mean survival time, dose: 135.0 mg/kg/injection, schedule: Q04DX004 (ip), vehicle: other) was 267 % of control and 327 % of control; the T/C (endpoint: mean survival time, dose: 150.0 mg/kg/injection, schedule: Q01DX001 (ip), vehicle: saline with Tween-80) was 229 % of control. Also, the T/C reads like this: (endpoint: mean survival time, dose: 200.0 mg/kg/injection, schedule: Q04DX004 (ip), vehicle: other) 203 % of control and 244 % of control; (endpoint: median survival time, dose: 75.0 mg/kg/injection, schedule: Q04DX002 (ip), vehicle: saline with Tween-80) 318 % of control and 327 % of control; (endpoint: median survival time, dose: 100.0 mg/kg/injection, schedule: Q04DX002 (ip), vehicle: saline with Tween-80) 314 % of control and 315 % of control.
For the compound `O=c1[nH]cc(F)c(=O)[nH]1`, the T/C (endpoint: mean survival time, dose: 10.0 mg/kg/injection, schedule: Q01DX005 (ip), vehicle: saline) was 109 % of control; the T/C (endpoint: mean survival time, dose: 20.0 mg/kg/injection, schedule: Q01DX005 (ip), vehicle: saline) was 120 % of control; the T/C (endpoint: mean survival time, dose: 40.0 mg/kg/injection, schedule: Q01DX005 (ip), vehicle: saline) was 152 % of control; the T/C (endpoint: mean survival time, dose: 50.0 mg/kg/injection, schedule: Q01DX005 (ip), vehicle: saline) is 183 % of control; the T/C (endpoint: mean survival time, dose: 60.0 mg/kg/injection, schedule: Q01DX005 (ip), vehicle: saline) was 182 % of control and 186 % of control; the T/C (endpoint: mean survival time, dose: 120.0 mg/kg/injection, schedule: Q01DX001 (ip), vehicle: water) was 150 % of control. In addition, the T/C runs as follows: (endpoint: mean survival time, dose: 150.0 mg/kg/injection, schedule: Q01DX001 (ip), vehicle: water) 154 % of control; (endpoint: mean survival time, dose: 180.0 mg/kg/injection, schedule: Q01DX001 (ip), vehicle: water) 180 % of control.
As to `O=NN(CCF)C(=O)NCCCl`, the T/C was 197 % of control and 294 % of control (endpoint: mean survival time, dose: 9.0 mg/kg/injection, schedule: Q01DX001 (ip), vehicle: Klucel (hydroxypropylcellulose) (HPC)); 226 % of control and 270 % of control (endpoint: mean survival time, dose: 14.0 mg/kg/injection, schedule: Q01DX001 (ip), vehicle: Klucel (hydroxypropylcellulose) (HPC)); 342 % of control and 307 % of control (endpoint: mean survival time, dose: 21.0 mg/kg/injection, schedule: Q01DX001 (ip), vehicle: Klucel (hydroxypropylcellulose) (HPC)); 603 % of control and 323 % of control (endpoint: mean survival time, dose: 32.0 mg/kg/injection, schedule: Q01DX001 (ip), vehicle: Klucel (hydroxypropylcellulose) (HPC)).
On to `O=NN(CCF)C(=O)NC1CCSCC1`, for which the T/C (endpoint: mean survival time, dose: 3.7 mg/kg/injection, schedule: Q01DX001 (ip), vehicle: other) is 154 % of control; the T/C (endpoint: mean survival time, dose: 7.0 mg/kg/injection, schedule: Q01DX001 (ip), vehicle: other) was 206 % of control and 227 % of control; the T/C (endpoint: mean survival time, dose: 15.0 mg/kg/injection, schedule: Q01DX001 (ip), vehicle: other) was 365 % of control and 575 % of control; the T/C (endpoint: mean survival time, dose: 31.0 mg/kg/injection, schedule: Q01DX001 (ip), vehicle: other) is 634 % of control and 642 % of control; the T/C (endpoint: mean survival time, dose: 62.0 mg/kg/injection, schedule: Q01DX001 (ip), vehicle: other) is 515 % of control and 856 % of control.
